The test system of this series is human apolipoprotein B mRNA. In words: Inhibition of human apolipoprotein B mRNA levels in HepG2 cells, quantitative real-time PCR. The class given is cell-based. Particulars: for % INHIB / % inhibition of apolipoprotein B mRNA levels / % INHIB 50 nm / % INHIB 150 nm / % Change in apolipoprotein B mRNA expression: HepG2 cells; for % INHIB (inhibition of human apolipoprotein B mRNA levels): HepG2 cells treated with 150 nM of compound, quantitative real-time PCR; for % inhibition of apolipoprotein B mRNA levels: normalized to untreated control, average of two experiments; for % Change in apolipoprotein B mRNA expression: 24 hour (Table 40). In outline:
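HepG2 cells at 80% confluency were transfected with antisense oligonucleotide using 3.75 μg/mL Lipofectin in Opti-MEM for 4-7 h and harvested 16-24 h after treatment. Apolipoprotein B mRNA was measured by real-time RT-PCR and normalized to GAPDH or RiboGreen total RNA. Percent inhibition came from untreated-control standard curves.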

Setting [1] is: Table 15, 150 nM, averages from two experiments.
[2] abbreviates: human apolipoprotein B mRNA, oligonucleotides targeting genomic sequence SEQ ID NO 334, averages from two experiments.
[3] abbreviates: 50 nm oligonucleotide, variable deoxy gap position.
The mark [4] stands for this setting: 150 nm oligonucleotide, variable deoxy gap position.
The mark [5] stands for this setting: Table 1, 150 nM, averages from two experiments.

In the oligonucleotide strings, read from the 5' end, every base follows the letter of its sugar. An asterisk marks phosphorothioate; unmarked linkages are phosphodiester. Other units and linkages are bracketed, terminal groups are in braces. A string of capitals states the bases alone. e = 2'-O-(2-methoxyethyl) (MOE); [5mC] = 5-methylcytosine; d = 2'-deoxy (DNA)

“301226 (antisense e[5mC]*eT*eT*eA*eA*dA*dT*d[5mC]*dA*d[5mC]*dA*d[5mC]*dT*dA*dT*eG*eT*eG*eT*eT) [compound 301226]”: the “% INHIB” value under setting [1] is given as 39%.
With “281587 (eA*eT*eG*eT*eG*dT*dA*d[5mC]*dT*dT*d[5mC]*d[5mC]*dG*dG*dA*eG*eG*eT*eG*e[5mC]; antisense) [compound 281587]”, under “averages from two experiments”, the “% INHIB (inhibition of human apolipoprotein B mRNA levels)” value is listed as 77%.
Take “301167 (antisense e[5mC]*e[5mC]*eA*eA*eG*d[5mC]*d[5mC]*dT*d[5mC]*dT*dT*dT*dA*d[5mC]*dT*eG*eG*eG*e[5mC]*eT) [compound 301167]”: the “% INHIB” value under setting [2] was 29%.
With “301040 (eG*e[5mC]*e[5mC]*e[5mC]*eT*dG*dG*dT*dG*d[5mC]*d[5mC]*dA*dG*d[5mC]*dT*eT*eT*eG*eG*eT; antisense) [compound 301040]”, the “% INHIB (inhibition of human apolipoprotein B mRNA levels)” value (averages from two experiments) stood at 74%.
In the case of “301170 (antisense eT*eT*e[5mC]*eA*eT*dA*dT*dG*dA*dA*dA*dT*d[5mC]*dT*d[5mC]*e[5mC]*eT*eA*e[5mC]*eT) [compound 301170]”, the “% INHIB” value under setting [2] came out at 40%.
Take “301211 (antisense e[5mC]*eT*e[5mC]*eT*e[5mC]*dT*dG*dA*dA*dA*dA*dA*dT*dA*dT*eA*e[5mC]*e[5mC]*e[5mC]*eT) [compound 301211]”: under setting [2], the “% INHIB” value is 17%.
For the substance “281635 (antisense eA*eT*eA*e[5mC]*eA*d[5mC]*dT*dG*d[5mC]*dA*dA*d[5mC]*dT*dG*dT*eG*eG*e[5mC]*e[5mC]*eT) [compound 281635]”, the “% INHIB (inhibition of human apolipoprotein B mRNA levels)” value (averages from two experiments) came out at 89%.
“308638 (GCCTCAGTCTGCTTCGCACC; 1-10-9 MOE gapmer, phosphorothioate, chemistry not fully specified) [compound 308638]”: the “% inhibition of apolipoprotein B mRNA levels” value runs as follows: (12.5 nM oligonucleotide) 42%; (37 nM oligonucleotide) 73%; (75 nM oligonucleotide) 91%; (150 nM oligonucleotide) 96%; (300 nM oligonucleotide) 97%. Moreover, the “% INHIB 50 nm” value under setting [3] turned out to be 91%. Besides, the “% INHIB 150 nm” value under setting [4] is on record as 94%.
On to “301197 (antisense e[5mC]*eA*eT*eA*eG*d[5mC]*dT*d[5mC]*dA*d[5mC]*d[5mC]*dT*dT*dG*d[5mC]*eA*e[5mC]*eA*eT*eT) [compound 301197]”, for which the “% INHIB” value under setting [2] is recorded as 28%.
As for “281642 (eG*e[5mC]*e[5mC]*eT*e[5mC]*dA*d[5mC]*dT*dA*dG*d[5mC]*dA*dA*dT*dA*eG*eT*eT*e[5mC]*e[5mC]; antisense) [compound 281642]”, the “% INHIB (inhibition of human apolipoprotein B mRNA levels)” value (averages from two experiments) is reported as 59%.
Consider “332769 (antisense GCCTCAGTCTGCTTCGCACC; all 2'-MOE, all phosphorothioate, methylation of C not given here) [compound 332769]”, for which the “% Change in apolipoprotein B mRNA expression” value is, setting by setting: (50 nM) −11%; (150 nM) −14%.
In the case of “271044 (e[5mC]*e[5mC]*e[5mC]*eA*eG*dT*dG*dG*dT*dG*d[5mC]*d[5mC]*dA*d[5mC]*dT*eG*eG*e[5mC]*eT*eG; antisense) [compound 271044]”, the “% INHIB (inhibition of human apolipoprotein B mRNA levels)” value (averages from two experiments) is recorded as 22%.
On to “301105 (antisense eG*eG*e[5mC]*e[5mC]*eA*dT*dG*dT*dA*dA*dA*dT*dT*dG*d[5mC]*eT*e[5mC]*eA*eT*e[5mC]) [compound 301105]”, for which the “% INHIB” value under setting [2] is 7%.
Consider “301087 (antisense eA*e[5mC]*eA*eA*eG*dG*dA*dG*dT*d[5mC]*d[5mC]*dT*dT*dG*dT*eG*e[5mC]*eA*eG*eA) [compound 301087]”, for which, under setting [2], the “% INHIB” value is 40%.
As for “270992 (antisense e[5mC]*e[5mC]*e[5mC]*eT*eT*d[5mC]*d[5mC]*dT*d[5mC]*dG*dT*d[5mC]*dT*dT*dG*eA*e[5mC]*eG*eG*eT) [compound 270992]”, under “averages from two experiments”, the “% INHIB (inhibition of human apolipoprotein B mRNA levels)” value was found to be 8%.
On to “301081 (eG*eA*eG*eT*eG*dT*dG*dG*dT*d[5mC]*dT*dT*dG*d[5mC]*dT*eA*eG*eT*eG*e[5mC]; antisense) [compound 301081]”, for which the “% INHIB” value under setting [2] came out at 46%.
For “271013 (antisense eG*eA*eA*e[5mC]*eT*dG*d[5mC]*d[5mC]*d[5mC]*dA*dT*d[5mC]*dA*dA*dT*e[5mC]*eT*eT*eG*eA) [compound 271013]”, under “averages from two experiments”, the “% INHIB (inhibition of human apolipoprotein B mRNA levels)” value amounted to 19%.
Same read-out and setting: in the case of “281618 (antisense eA*eA*eG*e[5mC]*eA*dG*dA*d[5mC]*dA*dT*d[5mC]*dT*dG*dT*dG*eG*eT*e[5mC]*e[5mC]*e[5mC]) [compound 281618]” it was 90%.
On to “147782 (antisense eG*e[5mC]*e[5mC]*eT*e[5mC]*dG*dG*d[5mC]*d[5mC]*dT*d[5mC]*dG*d[5mC]*dG*dG*e[5mC]*e[5mC]*e[5mC]*eT*eG) [compound 147782]”, for which, under setting [5], the “% INHIB” value turned out to be 67%.
On to “301190 (antisense eA*eG*eA*e[5mC]*eA*d[5mC]*dA*dT*dA*d[5mC]*d[5mC]*dA*dT*dA*dA*eT*eG*e[5mC]*e[5mC]*eA) [compound 301190]”, for which the “% INHIB” value under setting [2] was 22%.
Same read-out and setting: under “301123 (eG*eA*eT*eG*eT*dA*dT*dG*dT*d[5mC]*dA*dT*dA*dT*dA*eA*eA*eA*eG*eA; antisense) [compound 301123]” stands 26%.
Consider “308634 (AGGTTACCAGCCACATGCAG; 10-10-0 MOE gapmer, phosphorothioate, chemistry not fully specified) [compound 308634]”, for which the “% INHIB 50 nm” value under setting [3] is 45%. For the same substance, under setting [4], the “% INHIB 150 nm” value came out at 67%.
With “301150 (eG*eA*eA*eA*eG*dG*dA*dA*dG*dG*dA*d[5mC]*dT*dA*dG*e[5mC]*eA*eT*eA*eT; antisense) [compound 301150]”, the “% INHIB” value under setting [2] worked out at 39%.
As to “301146 (e[5mC]*eA*eT*eA*eG*dG*dA*dG*dT*dA*d[5mC]*dA*dT*dT*dT*eA*eT*eA*eT*eA; antisense) [compound 301146]”, the “% INHIB” value under setting [2] is 23%.
For “147785 (antisense eG*e[5mC]*e[5mC]*e[5mC]*eG*d[5mC]*d[5mC]*dA*dG*d[5mC]*dA*dG*d[5mC]*dA*dG*e[5mC]*eA*eG*e[5mC]*eA) [compound 147785]”, the “% INHIB” value under setting [5] came to 29%.
In the case of “301218 (antisense eA*e[5mC]*eA*eT*eT*dT*dT*dA*dT*d[5mC]*dA*dA*dT*dG*d[5mC]*e[5mC]*e[5mC]*eT*e[5mC]*eG) [compound 301218]”, the “% INHIB” value under setting [1] came to 23%.
Turning to “147823 (antisense eT*eG*e[5mC]*e[5mC]*e[5mC]*dT*dG*d[5mC]*dA*dG*d[5mC]*dT*dT*d[5mC]*dA*e[5mC]*eT*eG*eA*eA) [compound 147823]”, under setting [5], the “% INHIB” value is listed as 19%.
With “301111 (antisense eT*eG*eA*eA*eG*dG*dG*dT*dA*dG*dA*dG*dA*dA*dA*eT*e[5mC]*eA*eT*eA) [compound 301111]”, the “% INHIB” value under setting [2] is recorded as 9%.
Turning to “281626 (antisense eA*eT*eG*eT*eG*d[5mC]*dA*dT*d[5mC]*dG*dA*dT*dG*dG*dT*e[5mC]*eA*eT*eG*eG) [compound 281626]”, the “% INHIB (inhibition of human apolipoprotein B mRNA levels)” value (averages from two experiments) amounted to 88%.
On to “308633 (GCCTCAGTCTGCTTCGCGCC; 10-10-0 MOE gapmer, phosphorothioate, chemistry not fully specified) [compound 308633]”, for which, under “Table 17 variable gap, 50 nM, averages from three experiments”, the “% INHIB 50 nm” value stood at 66%. Besides, the “% INHIB 150 nm” value (Table 17 variable gap, 150 nM, averages from three experiments) is recorded as 83%.
Take “147814 (antisense e[5mC]*e[5mC]*e[5mC]*eA*eA*dT*dA*dA*dG*dA*dT*dT*dT*dA*dT*eA*eA*e[5mC]*eA*eA) [compound 147814]”: the “% INHIB” value under setting [5] turned out to be 34%.
For the substance “301024 (eA*eA*eA*eT*eG*dA*dA*dG*dA*dT*dT*dT*d[5mC]*dT*dT*eT*eT*eA*eA*eA; antisense) [compound 301024]”, under “averages from two experiments”, the “% INHIB (inhibition of human apolipoprotein B mRNA levels)” value was 5%.
On to “147831 (antisense e[5mC]*eT*eG*e[5mC]*e[5mC]*dT*dA*d[5mC]*dT*dG*d[5mC]*dA*dA*dG*dG*e[5mC]*eT*eG*eG*e[5mC]) [compound 147831]”, for which the “% INHIB” value under setting [5] is recorded as 0%.
Take “301032 (e[5mC]*eT*eA*e[5mC]*eT*dG*d[5mC]*dA*dA*dG*dG*d[5mC]*dT*dG*dG*e[5mC]*eT*e[5mC]*eA*e[5mC]; antisense) [compound 301032]”: the “% INHIB (inhibition of human apolipoprotein B mRNA levels)” value (averages from two experiments) came out at 63%.
As for “301084 (antisense eA*e[5mC]*eA*e[5mC]*eG*dG*dT*dA*dT*d[5mC]*d[5mC]*dT*dA*dT*dG*eG*eA*eG*eG*eA) [compound 301084]”, the “% INHIB” value under setting [2] turned out to be 49%.
For the substance “308641 (GCCTCAGTCTGCTTCGCACC; 2-10-8 MOE gapmer, phosphorothioate, chemistry not fully specified) [compound 308641]”, the “% INHIB 50 nm” value under setting [3] turned out to be 77%. Under setting [4], the “% INHIB 150 nm” value was determined as 89%.
Consider “308622 (eG*e[5mC]*e[5mC]*eT*eT*d[5mC]*dT*dG*d[5mC]*dT*dT*dG*dA*dG*dT*eT*eA*e[5mC]*eA*eA; antisense) [compound 308622]”, for which the “% INHIB 50 nm” value (Table 13 gene walk, 50 nM, averages from two experiments) is 25%. Also, where the note is “Table 13 gene walk, 150 nM, averages from two experiments”, the “% INHIB 150 nm” value was 87%.
Take “281633 (antisense eG*eA*eT*eT*e[5mC]*dT*dG*dA*dT*dT*dT*dG*dG*dT*dA*e[5mC]*eT*eT*eA*eG) [compound 281633]”: the “% INHIB (inhibition of human apolipoprotein B mRNA levels)” value (averages from two experiments) was 73%.

The values above are taken from patent publication US7803930B2, “Antisense modulation of apolipoprotein B-expression” (Isis Pharmaceuticals, Inc., priority 2002, dated 2010).
